Experiments:
B16F10 tumors = assay: B16F10 melanoma model, adoptive transfer of Vacc DCs with PFK15; format: in vivo, mouse; details: day 16; vs no treatment control
Experimental: To test the versatility of the F16BP-PFK15 system, another aggressive B16F10 melanoma model was chosen (FIG. 4A). In this model, DCs were loaded with F16BP MPs intercalated with mRNA isolated from B16F10 cancer cells, and poly(IC) (Vacc DCs) and adoptively transferred in mice containing B16F10 tumors. This cellular therapy's ability to modulate adaptive immune responses, reduced tumor growth, and improve survival were measured.
To test if the metabolic rescue in DCs can be applied to adoptive cell therapy, adoptive transfer of DC-vaccines was tested in mice (FIG. 16). […] Specifically, 0.75×10^6 B16F10 cells were injected in C57BL/6j immunocompetent mice, and PFK15 was injected every alternate day for the duration of the study (FIG. 16). Moreover, ex vivo DCs loaded with F16BP(mRNA+poly(IC)) (Vacc DCs) or DCs loaded with F16BP MPs were adoptively transferred using retro-orbital injections (RO) on days 6 and 19 (FIG. 15).
To test if the Vacc DCs could modulate the immune responses after their administration, on day 16, spleen, lymph nodes, and tumors were isolated from different conditions and stained for the activation profile of DCs, and T cells. […]
Since Vacc DCs are administered systemically, spleen and cervical lymph nodes were also analysed for the changes in innate and adaptive immune responses (FIG. 19 through FIG. 22).

DCs [1] = assay: Extracellular flux assays on DCs in vitro (ECAR, respiration); format: cell-based, mouse
Experimental: (§1) Data represented as mean±std error.
Next, the ability of the F16BP MPs to rescue glycolysis in DCs in the presence of glycolytic inhibitor PFK15 was evaluated using extracellular flux assays. DCs were cultured with either PFK15, F16BP MPs, soluble fructose-6-phosphate (F6P—upstream of PFKFB3) or PFK15+F16BP MPs, or individual components of the F16BP MPs for 2 hr, and extracellular acidification rate (ECAR—rate of glycolysis) measurements were obtained. […] This is important since under conditions of inflammation, DCs need to perform enhanced levels of glycolysis to support the inflammatory protein production.

B16F10 cancer cells = assay: Proliferation assay using MTT, B16F10; format: cell-based, mouse; details: in vitro
DCs [2] = assay: DC activation by flow cytometry in vitro; format: cell-based, mouse; details: in the presence of poly(IC); PFK15 conc.=25 μM
Source text: as §1
To test if F16BP MPs can modulate the function of DCs, mRNA-based and peptide-based vaccine F16BP MPs were formulated. These vaccines were generated by intercalating di-phosphorylated melanoma peptide antigen Tyrosine related protein 2 (pTRP2), and poly(IC) and mRNA derived from melanoma cells, which contain several phosphate groups in their backbone (FIG. 12). Since pTRP2p, and poly(IC) have phosphate groups, these molecules can be incorporated into the F16BP MPs using the calcium-phosphate chemistry. The amount of pTRp2, and poly(IC) incorporated within the F16BP MPs was determined to be 78±3.4, and 50.9±7.9 μg, respectively. Next, F16BP MPs intercalated with poly(IC) and pTRP2 were incubated with DCs overnight, and flow cytometry was utilized to test if these particles could activate DCs (FIG. 2I and FIG. 2J).

YUMM1.1 cancer cells = assay: Proliferation assay using MTT, YUMM1.1; format: cell-based, mouse; details: in vitro
[3] = DCs cultured 2 hr, vs no treatment control

Q: How did the “total number of CD8+ T cells in the tumor” value (B16F10 tumors) turn out when `O=C(/C=C/c1ccc2ccccc2n1)c1ccncc1` [PFK15] was run?
A: The value was “significantly decreased”.

Q: What about the “glycolysis (ECAR)” value (DCs [1]; [3]) of the same compound?
A: The value was “lower than no treatment control”.

Q: What about the “glycolytic capacity (ECAR)” value (DCs [1]; [3]) of the same compound?
A: The value was “lower than no treatment control”.

Q: And the “glycolysis (ECAR)” value (DCs [1]; in the presence of poly(IC))?
A: Its value is “decreased”.

Q: What about the “glycolytic capacity (ECAR)” value (DCs [1]; in the presence of poly(IC)) of the same compound?
A: The value was “decreased”.

Q: What about the “proliferation of B16F10 cancer cells” value (B16F10 cancer cells) of the same compound?
A: Its value is “effective in preventing proliferation”.

Q: And the “activation of DCs (CD80+CD86+ in CD11c+)” value (DCs [2])?
A: The value was “able to decrease”.

Q: What about the “proliferation of YUMM1.1 cancer cells” value (YUMM1.1 cancer cells) of the same compound?
A: Its value is “effective in preventing proliferation”.
